From patent US20080003684A1, “DIAGNOSTIC METHOD FOR MYOPATHY” (priority 2006, published 2008) come the findings set out here.

Molecules are shown by their SMILES.

Experiment [1] has as its system MYL5. The experiment is described as follows: RealTime Quantitative TaqMan PCR of muscle RNA. It is filed as in vivo, human. The conditions noted are these: n=5, p=0.021. Here is the method: (§1) Based on a hierarchical cluster analysis (described in Example 1) 20 genes were selected for further RT-PCR control in order to identify a gene expression based fingerprint for statin effect on human skeletal muscle.
(§2) The microarray expression results recorded in the simvastatin group (n=5, for one case there was not enough muscle RNA for PCR) were verified by RealTime Quantitative TaqMan PCR. Previously purified cRNA was used as starting material for cDNA synthesis. A 1000 ng-18 μl aliquote of cRNA was mixed with 1 μl Promega Random Primer (C1181, Promega U.S., Madison, Wis., USA) and incubated in +70° C. for 10 min. The following reagents were added leading to 25 μl total reaction volume: 1 μl of 10 μM dNTP blend (F09892, Applied Biosystems, Foster City, Calif., USA), 1 μl of Promega M-MLV Reverse Transcriptase 200 U/μl (M3682) and 4 μl of M-MLV RT 5× reaction buffer. Finally the incubations were performed in the following order: 10 min in RT, 50 min in 45° C., and, 10 min in 70° C. 10 μl volume was used for PCR reaction, consisting of 2 μl aliquote of 1:10 diluted cDNA sample, and, Abgene ABsolute 2×QPCR ROX mix (AB-1139, Abgene, Epsom, UK). The primer concentrations were 300 nM, probe concentrations for Universal Probe Library (Exiqon, Vedbaek, Denmark) probes 100 nM and for ordinary long probes 200 nM. Finally the PCR reactions were performed in rtPCR system (ABI Prism 7700 Sequence Detection System, Applied Biosystems) having the following PCR procedure: 95° C. for 15 min, and 40 cycles of 95° C. for 15 s and 60° C. for 1 min.
(In general: In qPCR the cycle at which signal appears reflects the starting amount.)

Experiment [2] concerns MYBPH. Description: RealTime Quantitative TaqMan PCR of muscle RNA. As to conditions: n=5, p=0.027. It is filed as in vivo, human. Here is the method:
as §1, §2

Experiment [3] has as its system ALOX5AP. Description: RealTime Quantitative TaqMan PCR of muscle RNA. It is filed as in vivo, human. As to conditions: n=5, p=0.041. Here is the method: as §1, §2
Experiment [4] relates to COL3A1. Description: RealTime Quantitative TaqMan PCR of muscle RNA. It is filed as in vivo, human. The conditions noted are these: n=5, p=0.026. Here is the method:
as §1, §2

Experiment [5] relates to CCL5. Description: RealTime Quantitative TaqMan PCR of muscle RNA. It is filed as in vivo, human. The conditions noted are these: n=5, p=0.011. Here is the method: as §1, §2
Experiment [6] has as its system human skeletal muscle. The experiment is described as follows: Whole genome microarray analysis in muscle biopsies, single-gene analysis. As to conditions: high dose statin treatment, criteria 1.5-fold change and p-value <0.05.
Experiment [7] relates to human skeletal muscle. Description: Gene set enrichment analysis (GSEA) of muscle microarray data. As to conditions: high dose statin treatment, FDR<0.25.

Turning to `CCC(C)(C)C(=O)O[C@H]1C[C@@H](C)C=C2C=C[C@H](C)[C@H](CC[C@@H]3C[C@@H](O)CC(=O)O3)[C@H]21` [simvastatin], the “MYL5 expression change by RT-PCR” value in experiment [1] was “+8.0 fold”. Further, the “MYBPH expression change by RT-PCR” value in experiment [2] is given as “+49.0 fold”. Besides, the “ALOX5AP expression change by RT-PCR” value in experiment [3] is “+3.6 fold”. Moreover, the “COL3A1 expression change by RT-PCR” value in experiment [4] was “+27.1 fold”. Moreover, the “CCL5 expression change by RT-PCR” value in experiment [5] was “+11.9 fold”. In experiment [6], the “number of genes up-regulated” value is reported as 85 genes and the “number of genes whose expression changed significantly during the intervention” value is on record as 111 genes. Besides, the “number of pathways up-regulated / affected in GSEA” value in experiment [7] is on record as 143 pathways.

As to `CC(C)c1c(C(=O)Nc2ccccc2)c(-c2ccccc2)c(-c2ccc(F)cc2)n1CC[C@@H](O)C[C@@H](O)CC(=O)O` [atorvastatin], the “number of genes whose expression changed significantly during the intervention” value in experiment [6] was “five”. The “number of pathways up-regulated / affected in GSEA” value in experiment [7] is “no pathways appeared to be affected significantly”.
